Data as given in patent publication EP4458353A1, “ANTICARIOGENIC SYNERGETIC COMPOSITION FOR ORAL CARE” (SkyLab AG, priority 2023, dated 2024).
In brackets after ≈: the same amount, converted by molar mass. Like-named read-outs stand apart in the source and are kept apart here.

Columns and labels:
Type in all cases: cell-based
[1] = system: Streptococcus mutans; test: Minimum inhibitory concentration (MIC), serial two-fold dilution with resazurin test; conditions: Streptococcus mutans, S. mutans
[2] = system: Streptococcus sobrinus; test: Minimum biofilm inhibitory concentration (MBIC), crystal violet staining; conditions: S. sobrinus
Description: (§1) Group of examples No 4 - 6. Anti-biofilm activity of the substance or of the composition of substances was assessed from minimum biofilm inhibitory concentration (MBIC) and from the rate of biofilm formation on hydroxyapatite disks.
(§2) Reference strains Streptococcus mutans and S. Sobrinus were used as the bacterial models.
(§3) Example No 4. MBIC as the measure of the substance effect on the bacterial biofilm is equal to minimum concentration inhibiting the biofilm formation or disruption of already formed biofilm during 24 hour incubation.
(§4) MBIC of individual components of the composition, specifically, naringenin, guava leaf CO2 extract, and enzymes lysozyme and labiase can be determined according to the procedure: • 1) All stages of nutritive medium preparation, preparation and incubation of bacterial cultures in 96-well microtiter plates with the test composition of the substances added into nutritive medium were as described in Example 1. • 2) All controls for the culture growth, for purity of nutritive medium and for solvents were as described in Example 1. • 3) Incubate the plates at 37 °C for 24 ± 4 h without the use the orbital shaker. • 4) Stain the bacterial biofilm accumulated on bottom of the plate wells with crystal violet. For this purpose remove the planktonic culture from the plate wells after 24 h incubation and wash with two portions of phosphate-buffered saline (PBS, pH 7.4) to remove remaining planktonic culture. Then dry the plate for 12-15 hours. Add 100 µL of 0.5% crystal violet solution (Sigma-Aldrich, USA), dissolved in 96% ethanol followed by incubation for 20 minutes. After removal of crystal violet solution from the wells wash the plate with 3-4 portions of PBS. After drying add […] of 96% ethanol into the wells to elute the crystal violet, which has bound to the biofilm. • 5) Shake the plate on the orbital shaker for 2 minutes at 37 °C and then measure optical density (OD) at the wavelength of 550nm using multimodal microplate reader against the blank (the well, where the sterile medium LB was incubated and then exposed to all staining manipulations). Since the serial dilution method with 2-fold dilution steps is used for MBIC determination, the difference between the adjacent dilution is considered as non-significant, and MBIC is defined as the median value calculated for 5 independent biological replicates of the experiment. • 6) The following concentrations were tested: naringenin and guava leaf extract at concentrations 1.6, 0.8, 0.4, 0.2, 0.1, 0.05 mg/mL; lysozyme and labiase at concentrations 4.0, 2.0, 1.0, 0.5, 0.25, 0.125 mg/mL. Well-known antibacterial components were used as controls: chlorohexidine bigluconate at concentrations 64, 32, 16, 8, 4 µg/mL; zinc gluconate at concetrations 5.0, 2.5, 1.25, 0.6, 0.3, 0.15 mg/mL.

[3] = system: Streptococcus mutans; test: as above; conditions: S. mutans
Description: as §1, §2, §3, §4

[4] = system: Streptococcus sobrinus; test: Minimum inhibitory concentration (MIC), serial two-fold dilution with resazurin test; conditions: Streptococcus sobrinus, S. sobrinus
[5] = 24 h at 37 °C, read-out: MIC value in individual replicate Replicate 1
[6] = 24 h at 37 °C, read-out: MIC value in individual replicate Replicate 2
[7] = 24 h at 37 °C, read-out: MIC value in individual replicate Replicate 3
[8] = 24 h at 37 °C, read-out: MIC value in individual replicate Replicate 4
[9] = 24 h at 37 °C, read-out: MIC value in individual replicate Replicate 5
[10] = median of 5 replicates, read-out: MIC Median value

For `O=C1C[C@@H](c2ccc(O)cc2)Oc2cc(O)cc(O)c21` [Naringenin, naringenin], the MIC [1, 5] was > 1600 µg/mL, the MIC [1, 6] was > 1600 µg/mL and the MIC [1, 7] was 800 µg/mL (≈ 2.94 mM). It also gave an MIC [1, 8] of 400 µg/mL (≈ 1.47 mM), an MIC [1, 9] of 800 µg/mL (≈ 2.94 mM) and an MIC [1, 10] of 800 µg/mL (≈ 2.94 mM). The “MBIC in indicvdual replicates Replicate 1” value ([2]; 24 h incubation) was >1.6 mg/mL, the “MBIC in indicvdual replicates Replicate 2” value ([2]; 24 h incubation) was >1.6 mg/mL and the “MBIC in indicvdual replicates Replicate 3” value ([2]; 24 h incubation) was >1.6 mg/mL. For the same compound, the “MBIC in indicvdual replicates Replicate 4” value ([2]; 24 h incubation) was >1.6 mg/mL, the “MBIC in indicvdual replicates Replicate 5” value ([2]; 24 h incubation) was >1.6 mg/mL and the “MBIC Median value” ([2]; median of 5 replicates) was >1.6 mg/mL. For the same compound, the “MBIC in indicvdual replicates Replicate 1” value ([3]; 24 h incubation) was 0.8 mg/mL, the “MBIC in indicvdual replicates Replicate 2” value ([3]; 24 h incubation) was 0.8 mg/mL and the “MBIC in indicvdual replicates Replicate 3” value ([3]; 24 h incubation) was 0.8 mg/mL. For the same compound, the “MBIC in indicvdual replicates Replicate 4” value ([3]; 24 h incubation) was 0.4 mg/mL, the “MBIC in indicvdual replicates Replicate 5” value ([3]; 24 h incubation) was 0.8 mg/mL and the “MBIC Median value” ([3]; median of 5 replicates) was 0.8 mg/mL. The MIC [4, 5] was > 1600 µg/mL, the MIC [4, 6] was > 1600 µg/mL and the MIC [4, 7] was > 1600 µg/mL. The MIC [4, 8] was > 1600 µg/mL, the MIC [4, 9] was > 1600 µg/mL and the MIC [4, 10] was > 1600 µg/mL.
